Reference: PMC4751939, “Antileishmanial Activity of Compounds Derived from the Medicines for Malaria Venture Open Access Box against Intracellular Leishmania major Amastigotes” (The American Journal of Tropical Medicine and Hygiene, 2016)
Read-outs that look alike come from different tables or passages of the source.

Legend:
Assay type in all cases: cell-based
[1] = test system: intracellular Leishmania major amastigotes (luciferase-expressing, in RAW 264.7 macrophages); test: Luciferase-expressing intracellular L. major amastigote-macrophage dose-response assay
Procedure: Macrophages were harvested from culture by removing all spent media, adding in 10 mL of fresh media, scraping adherent macrophages from the culture flask, and counting macrophages using trypan blue. The cells were resuspended at 2.0 × 10^5 cells/mL, and then dispensed in a volume of 50 μL to yield a final concentration of 10,000 macrophages/well in 384-well tissue culture–treated sterile white plates (Nunc/Thermo Fisher, Rochester, NY) using a Tecan EVO Freedom robotics system (Tecan U.S., Durham, NC). The plates were then incubated at 37°C in 5% CO2 atmosphere for 24 hours. After incubation, the media was removed from each well using the Tecan EVO Freedom robot, and 1 × 10^5 transfected L. major promastigotes were added to each well in a volume of 50 μL in DMEM/heat-inactivated fetal bovine serum (HIFBS) media and allowed to invade the macrophages. After overnight incubation, the media was removed from each well using the Tecan Freedom EVO robot, and each well was subsequently washed three times with 40 μL of fresh DMEM/HIFBS medium to remove all extracellular promastigotes. After the third wash, 69.2 μL of DMEM/HIFBS medium was added to each well using the Tecan EVO Freedom robot. Drug plates were prepared with the Tecan EVO Freedom using sterile 96-well plates containing 12 duplicate 2-fold serial dilutions of each test compound suspended in dimethyl sulfoxide (DMSO) for dose–response determinations. Of diluted test compound, 7.8 μL was added to the 69.2 μL media present in each well providing a 10-fold final dilution of compound. The final concentration range tested was 0.0005–1 μM for all assays. The plates were placed in a modular incubator chamber (Billups-Rothenburg, Del Mar, CA) that contained a humidity source, consisting of soaked gauze in a weigh boat, which was placed in the bottom of the chamber. Both valves on the system were opened and using a vent filter (Millipore, Billerica, MA), attached to the one valve, mixed gas containing 5% O2, 5% CO2, and a balance of nitrogen was allowed to pass through the system for 60 seconds. After 60 seconds, the exit valve was closed and the mixed gas was allowed to flow into the chamber for 10 seconds. At that point the remaining valve was closed. Chambers were gassed every other day. The chambers were incubated at 37°C for 96 hours. After 96 hours of incubation, 7.5 μL luciferin solution (Caliper Life Science, Hopkinton, MA) diluted to 150 μg/mL was added to each well, and the plates were incubated for 30 minutes at 37°C in the dark. Each plate was read using an Infinite M200 plate reader (Tecan Inc., Durham, NC).
The 50% inhibitory concentrations (IC50) were then generated for each dose–response test using GraphPad Prism (GraphPad Software Inc., San Diego, CA) using the nonlinear regression (sigmoidal dose–response/variable slope) equation.

[2] = MTT cytotoxicity assay; conditions: human, HepG2 cells, 48-hour incubation
Procedure: (§1) An 3-(4,5-dimethylthiazol-2-yl)-2,5-diphenyltetrazolium bromide (MTT) cytotoxicity counter assay was used to test all compounds from the MMV Malaria Box for cytotoxicity. The 384-well MTT cytotoxicity assay is a modification of the MTT method described by Ferrari and others[29] optimized for 384-well throughput. HepG2 target cells for this assay were cultured in […]. The HepG2 target cells for this assay were cultured as follows: HepG2 cells were cultured in complete Minimal Essential Medium (MEM; catalog no. 11090-099, Gibco-Invitrogen) prepared by supplementing MEM with 0.19% sodium bicarbonate (catalog no. 25080-094, Gibco-BRL), 10% HIFBS (catalog no. 16000-036, Gibco-Invitrogen, Grand Island, NY), 2 mM L-glutamine (catalog no. 25030-081, Gibco-Invitrogen), 0.1 mM MEM nonessential amino acids (catalog no. 11140-050, Gibco-Invitrogen), 0.009 mg/mL insulin (catalog no. I1882, Sigma), 1.76 mg/mL bovine serum albumin (catalog no. A1470, Sigma), 20 units/mL penicillin–streptomycin (catalog no. 15140-148, Gibco-Invitrogen), and 0.05 mg/mL gentamycin (catalog no. 15710-064, Gibco-Invitrogen). HepG2 cells cultured in complete MEM were first washed with 1× Hank's Balanced Salt Solution (catalog no. 14175-095, Invitrogen), trypsinized using a 0.25% trypsin/ethylenediaminetetraacetic acid solution (catalog no. 25200-106, Invitrogen), assessed for viability using trypan blue, and resuspended at 250,000 cells/mL. Drug plates were prepared with the Tecan EVO Freedom using sterile 96-well plates containing 12 duplicate 1.6-fold serial dilutions of each test compound suspended in DMSO. Of diluted test compound, 4.25 μL was then added to the 38.3 μL of media in each well providing a 10-fold final dilution of compound. Compounds were tested from a range of 57 to 10,000 ng/mL for all assays. The 4-azaindolo[2,1-b]quinazoline-6,12-dione was used as a toxicity control. After a 48-hour incubation period, 8 μL of a 1.5 mg/mL solution of MTT diluted in complete MEM media was added to each well. All plates were subsequently incubated in the dark for 1 hour at room temperature. After incubation, the media and drugs in each well was removed by shaking plate over sink, the plates were then left to dry in hood for 15 minutes. Next, 30 μL of isopropanol acidified by addition of hydrochloric acid at a final concentration of 0.36% was added to dissolve the formazan dye crystals created by reduction of MTT. Plates are put on a three-dimensional rotator for 15–30 minutes. Absorbance was determined in all wells using a Tecan icontrol 1.6 Infinite plate reader. The IC50 determinations were then generated for each toxicity dose–response test using GraphPad Prism (GraphPad Software Inc., San Diego, CA) using the nonlinear regression (sigmoidal dose–response/variable slope) equation.

[3] = test system: HepG2 cells; test: MTT cytotoxicity assay; conditions: 48-hour incubation
Procedure: as §1

[4] = Leishmania major, RAW264.7, MMV Malaria Box L. major hits, intracellular amastigotes, 96 hours, read-out: IC50
[5] = Leishmania major, RAW264.7, rounded values quoted in the discussion, read-out: L. major amastigote-macrophage IC50
[6] = Leishmania major, RAW264.7, transgenic luciferase expressing intracellular L. major amastigote-macrophage parasites, 96 hours, read-out: Geometric mean L. major IC50 ± SD (n)

Compound: Cc1ccccc1OCCSc1nc2ccc(NC(=O)c3cccs3)cc2s1 [MMV007396, N-[2-[2-(2-methylphenoxy)ethylsulfanyl]-1,3-benzothiazol-6-yl]thiophene-2-carboxamide]
- IC50 [1, 4]: 120 nM
- IC50 at 48 h [2]: 3500 nM

Compound: CCOc1ccc(N2C(N)=NC(N)=NC2(C)C)cc1 [MMV667486, 1-(4-ethoxyphenyl)-6,6-dimethyl-1,3,5-triazine-2,4-diamine]
- IC50 [1, 4]: 193 nM
- IC50 at 48 h [2]: > 6060 nM

Compound: O=C(NC(c1ccccc1)c1ccc2cccnc2c1O)c1ccccc1 (stereo not drawn) [MMV666080, N-[(8-hydroxyquinolin-7-yl)-phenylmethyl]benzamide]
- IC50 [1, 4]: 14.9 nM
- IC50 [1, 5]: 15 nM
- IC50 at 48 h [2]: > 6060 nM

Compound: Cc1ccc(Cn2c(N3CCC(C(=O)NCc4cccs4)CC3)nc3ccccc32)cc1 [MMV007564, 1-[1-[(4-methylphenyl)methyl]benzimidazol-2-yl]-N-(thiophen-2-ylmethyl)piperidine-4-carboxamide]
- IC50 [1, 4]: 60.8 nM
- IC50 [1, 5]: 61 nM
- IC50 at 48 h [2]: > 6060 nM

Compound: CCCCN(CCCC)S(=O)(=O)c1ccc(NC(=O)c2ccco2)cc1 [MMV007881, N-[4-(dibutylsulfamoyl)phenyl]furan-2-carboxamide]
- IC50 [1, 4]: 418 nM
- IC50 at 48 h [2]: 5600 nM

Compound: Cc1c(C)n(Cc2ccc(F)cc2)c2ccc(C(=O)NCc3ccco3)cc12 [MMV008149, 1-[(4-fluorophenyl)methyl]-N-(furan-2-ylmethyl)-2,3-dimethylindole-5-carboxamide]
- IC50 [1, 4]: 229 nM
- IC50 at 48 h [2]: 3260 nM

Compound: O=[N+]([O-])c1ccc(C=NNc2nc3ccccc3[nH]2)cc1 [MMV666607, 2-{2-[(4-nitrophenyl)methylidene]hydrazin-1-yl}-1H-1,3-benzodiazole]
- IC50 [1, 4]: 134 nM
- IC50 [1, 5]: 134 nM
- IC50 at 48 h [2]: > 6060 nM

Compound: C[C@@H]1[C@H](O)[C@@H](C)/C=C/C=C/C=C/C=C/C=C/C=C/C=C/[C@H](O[C@@H]2O[C@H](C)[C@@H](O)[C@H](N)[C@@H]2O)C[C@@H]2O[C@](O)(C[C@@H](O)C[C@@H](O)[C@H](O)CC[C@@H](O)C[C@@H](O)CC(=O)O[C@H]1C)C[C@H](O)[C@H]2C(=O)O [Amphotericin B, reference compound]
- IC50 [1, 6]: 27 ± 10 nM

Compound: NC[C@@H]1O[C@H](O[C@H]2[C@@H](O)[C@H](O[C@@H]3[C@@H](O)[C@H](N)C[C@H](N)[C@H]3O[C@H]3O[C@H](CO)[C@@H](O)[C@H](O)[C@H]3N)O[C@@H]2CO)[C@H](N)[C@@H](O)[C@@H]1O [Paromomycin, reference compound]
- IC50 [1, 6]: 780 ± 310 nM

Compound: CC(=O)N1CCN(c2ccc(OCC3COC(Cn4ccnc4)(c4ccc(Cl)cc4Cl)O3)cc2)CC1 (stereo not drawn) [Ketoconazole, reference compound]
- IC50 [1, 6]: 19800 ± 3900 nM

Compound: CCOC(=O)c1cn(CC)c2cc(N3CCCCC3)c(F)cc2c1=O [MMV665827, ethyl 1-ethyl-6-fluoro-4-oxo-7-piperidin-1-ylquinoline-3-carboxylate]
- IC50 [1, 4]: 478 nM
- IC50 at 48 h [2]: 1720 nM

Compound: N=C(N)c1ccc(OCCCCCOc2ccc(C(=N)N)cc2)cc1 [Pentamidine, reference compound]
- IC50 [1, 6]: 3420 ± 1700 nM

Compound: CCN(CC)CCCCCCNc1cc(OC)cc2c(C)ccnc12 [Sitamaquine, reference compound]
- IC50 [1, 6]: 10000 ± 370 nM

Compound: C[n+]1c2ccccc2nc2ccc(NCCO)cc21 [MMV396693, 2-[(10-methylphenazin-10-ium-2-yl)amino]ethanol]
- IC50 ([1]; Leishmania major, RAW264.7, 96 h): 53.4 nM
- IC50 at 48 h [2]: 5660 nM

Compound: O=C(O)[C@@H]1[O][Sb](=[O])([O][Sb]2(=[O])[O][C@H]([C@H](O)CO)[C@H](O)[C@H](C(=O)O)[O]2)[O][C@H]([C@H](O)CO)[C@@H]1O.[Na+].[Na+].[Na+] (stereo partly drawn) [Pentostam, reference compound]
- IC50 ([1]; transgenic luciferase expressing intracellular L. major amastigote-macrophage parasites, 96 hours, read-out: Geometric mean L. major IC50 ± SD (n)): 9080 ± 350 nM

Compound: CCCCCn1c(=N)n(CC(O)COc2cccc(C)c2)c2ccccc21 (stereo not drawn) [MMV000444, 1-(2-imino-3-pentylbenzimidazol-1-yl)-3-(3-methylphenoxy)propan-2-ol]
- IC50 [1, 4]: 267 nM
- IC50 at 48 h [2]: 4130 nM

Compound: COc1ccc(CCNC(=O)c2cc(S(=O)(=O)N3CC(C)CC(C)C3)ccc2Sc2ccc(F)cc2)cc1OC (stereo not drawn) [MMV007557, N-[2-(3,4-dimethoxyphenyl)ethyl]-5-(3,5-dimethylpiperidin-1-yl)sulfonyl-2-(4-fluorophenyl)sulfanylbenzamide]
- IC50 [1, 4]: 180 nM
- IC50 at 48 h [2]: > 6060 nM

Compound: CCCCCCCCCCCCCCCCOP(=O)([O-])OCC[N+](C)(C)C [Miltefosine, reference compound]
- IC50 [1, 6]: 550 ± 30 nM

Compound: c1ccc(CNc2nc(Nc3ccccc3)nc3ccccc23)cc1 [MMV006169, N-phenyl-N′-(phenylmethyl)quinazoline-2,4-diamine]
- IC50 [1, 4]: 467 nM
- IC50 at 48 h [2]: 5660 nM

Compound: COc1ccc(CCN2CCC(CN(C)Cc3cnn(-c4ccccc4)c3)CC2)cc1 [MMV666069]
- IC50 [1, 4]: 366 nM
- IC50 at 48 h [2]: 5820 nM

Compound: 2-{2-[(4-nitrophenyl)methylidene]hydrazin-1-yl}-1H-1,3-benzodiazole [MMV666023]
- IC50 ([1]; MMV Malaria Box L. major hits, intracellular amastigotes, 96 hours, read-out: IC50): 91.7 nM
- IC50 ([1]; rounded values quoted in the discussion, read-out: L. major amastigote-macrophage IC50): 92 nM
- IC50 [3]: 1300 nM
